This passage reports IC50 results from patent US10370333B2 (Sanford Burnham Prebys Medical Discovery Institute, priority 2012, dated 2019).

A word on the IC50: it is the point on the concentration scale where inhibition reaches its midpoint. Low values mean greater potency, high ones weaker potency.

In the assay the target is TNAP (Homo sapiens (Human), UniProt P05186). The experiment in a line: TNAP (PPi) inhibition assay, pyrophosphate as substrate. The format is biochemical. An outline of the steps: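 Secreted epitope-tagged human TNAP from transiently transfected COS-1 cells, dialyzed to remove phosphate. Inhibitors tested kinetically at pH 7.4 with PPi as substrate; released phosphate quantified colorimetrically with Biomol Green reagent.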

In turn, `COc1ccc(Br)cc1S(=O)(=O)Nc1cncc(-c2ccccn2)c1` [Example III-59, N-([2,3′-Bipyridin]-5′-yl)-5-bromo-2-methoxybenzenesulfonamide] displayed an IC50 below 100 nM. Then `COc1ccc(Cl)cc1S(=O)(=O)Nc1cncc(-c2ccccn2)c1` [Example III-60, N-([2,3′-Bipyridin]-5′-yl)-5-chloro-2-methoxybenzenesulfonamide], with below 100 nM. In the case of `COc1ccc(Br)cc1S(=O)(=O)Nc1cncc(-c2cccnc2)c1` [Example III-62, N-([3,3′-Bipyridin]-5-yl)-5-bromo-2-methoxybenzenesulfonamide], the IC50 is below 100 nM. Under `COc1ccc(Br)cc1S(=O)(=O)Nc1cncc(-c2ccncc2)c1` [Example III-65, N-([3,4′-Bipyridin]-5-yl)-5-bromo-2-methoxybenzenesulfonamide] stands below 100 nM; under `COc1ccc(OC)c(S(=O)(=O)Nc2cncc(-c3ccco3)c2)c1` [Example III-67, N-(5-(Furan-2-yl)pyridin-3-yl)-2,5-dimethoxybenzenesulfonamide], below 100 nM. `COc1ccc(Br)cc1S(=O)(=O)Nc1cncc(-c2ccco2)c1` [Example III-68, 5-Bromo-N-(5-(furan-2-yl)pyridin-3-yl)-2-methoxybenzenesulfonamide] came in with an IC50 below 100 nM.

On to `COc1ccc(Cl)cc1S(=O)(=O)Nc1cncc(-c2ccco2)c1` [Example III-69, 5-Chloro-N-(5-(furan-2-yl)pyridin-3-yl)-2-methoxybenzenesulfonamide], for which the IC50 is below 100 nM. `COc1ccc(OC)c(S(=O)(=O)Nc2cncc(-c3ccoc3)c2)c1` [Example III-70, N-(5-(Furan-3-yl)pyridin-3-yl)-2,5-dimethoxybenzenesulfonamide]: the IC50 was below 100 nM. For the compound `COc1ccc(Br)cc1S(=O)(=O)Nc1cncc(-c2ccoc2)c1` [Example III-71, 5-Bromo-N-(5-(furan-3-yl)pyridin-3-yl)-2-methoxybenzenesulfonamide], the IC50 is below 100 nM. In turn, `COc1ccc(Cl)cc1S(=O)(=O)Nc1cncc(-c2ccoc2)c1` [Example III-72, 5-Chloro-N-(5-(furan-3-yl)pyridin-3-yl)-2-methoxybenzenesulfonamide] gave an IC50 below 100 nM. Compound `COc1ccc(OC)c(S(=O)(=O)Nc2cncc(-c3cccs3)c2)c1` [Example III-73, 2,5-Dimethoxy-N-(5-(thiophen-2-yl)pyridin-3-yl)benzenesulfonamide] had an IC50 below 100 nM. For the compound `COc1ccc(Br)cc1S(=O)(=O)Nc1cncc(-c2cccs2)c1` [Example III-74, 5-Bromo-2-methoxy-N-(5-(thiophen-2-yl)pyridin-3-yl)benzenesulfonamide], the IC50 is below 100 nM. Then `COc1ccc(Cl)cc1S(=O)(=O)Nc1cncc(-c2cccs2)c1` [Example III-75, 5-Chloro-2-methoxy-N-(5-(thiophen-2-yl)pyridin-3-yl)benzenesulfonamide], with below 100 nM. Consider `COc1ccc(OC)c(S(=O)(=O)Nc2cncc(-c3ccsc3)c2)c1` [Example III-76, 2,5-Dimethoxy-N-(5-(thiophen-3-yl)pyridin-3-yl)benzenesulfonamide], for which the IC50 is below 100 nM. `COc1ccc(Br)cc1S(=O)(=O)Nc1cncc(-c2ccsc2)c1` [Example III-77, 5-Bromo-2-methoxy-N-(5-(thiophen-3-yl)pyridin-3-yl)benzenesulfonamide] came in with an IC50 below 100 nM. For the compound `COc1ccc(Cl)cc1S(=O)(=O)Nc1cncc(-c2ccsc2)c1` [Example III-78, 5-Chloro-2-methoxy-N-(5-(thiophen-3-yl)pyridin-3-yl)benzenesulfonamide], the IC50 is below 100 nM.

`COc1ccc(OC)c(S(=O)(=O)Nc2cncc(-c3nccs3)c2)c1` [Example III-79, 2,5-Dimethoxy-N-(5-(thiazol-2-yl)pyridin-3-yl)benzenesulfonamide] had an IC50 below 100 nM.

Take `COc1ccc(Br)cc1S(=O)(=O)Nc1cncc(-c2nccs2)c1` [Example III-80, 5-Bromo-2-methoxy-N-(5-(thiazol-2-yl)pyridin-3-yl)benzenesulfonamide]: the IC50 was below 100 nM. `COc1ccc(Cl)cc1S(=O)(=O)Nc1cncc(-c2nccs2)c1` [Example III-81, 5-Chloro-2-methoxy-N-(5-(thiazol-2-yl)pyridin-3-yl)benzenesulfonamide]: the IC50 was below 100 nM. `COc1ccc(OC)c(S(=O)(=O)Nc2cncc(-c3cncs3)c2)c1` [Example III-82, 2,5-Dimethoxy-N-(5-(thiazol-5-yl)pyridin-3-yl)benzenesulfonamide] came in with an IC50 below 100 nM. Then `COc1ccc(Br)cc1S(=O)(=O)Nc1cncc(-c2cncs2)c1` [Example III-83, 5-Bromo-2-methoxy-N-(5-(thiazol-5-yl)pyridin-3-yl)benzenesulfonamide], with below 100 nM; and `COc1ccc(Cl)cc1S(=O)(=O)Nc1cncc(-c2cncs2)c1` [Example III-84, 5-Chloro-2-methoxy-N-(5-(thiazol-5-yl)pyridin-3-yl)benzenesulfonamide], with below 100 nM; and `COc1ccc(OC)c(S(=O)(=O)Nc2cncc(-c3cscn3)c2)c1` [Example III-85, 2,5-Dimethoxy-N-(5-(thiazol-4-yl)pyridin-3-yl)benzenesulfonamide], with below 100 nM.

`COc1ccc(Br)cc1S(=O)(=O)Nc1cncc(-c2cscn2)c1` [Example III-86, 5-Bromo-2-methoxy-N-(5-(thiazol-4-yl)pyridin-3-yl)benzenesulfonamide] had an IC50 below 100 nM.

`COc1ccc(Cl)cc1S(=O)(=O)Nc1cncc(-c2cscn2)c1` [Example III-87, 5-Chloro-2-methoxy-N-(5-(thiazol-4-yl)pyridin-3-yl)benzenesulfonamide] had an IC50 below 100 nM. `COc1ccc(OC)c(S(=O)(=O)Nc2cncc(-c3cnn(C)c3)c2)c1` [Example III-88, 2,5-Dimethoxy-N-(5-(1-methyl-1H-pyrazol-4-yl)pyridin-3-yl)benzenesulfonamide] yielded an IC50 below 100 nM. Turning to `COc1ccc(Br)cc1S(=O)(=O)Nc1cncc(-c2cnn(C)c2)c1` [Example III-89, 5-Bromo-2-methoxy-N-(5-(1-methyl-1H-pyrazol-4-yl)pyridin-3-yl)benzenesulfonamide], the IC50 is below 100 nM.

Take `COc1ccc(Cl)cc1S(=O)(=O)Nc1cncc(-c2cnn(C)c2)c1` [Example III-90, 5-Chloro-2-methoxy-N-(5-(1-methyl-1H-pyrazol-4-yl)pyridin-3-yl)benzenesulfonamide]: the IC50 was below 100 nM. As for `COc1ccc(OC)c(S(=O)(=O)Nc2cncc(-c3ncccn3)c2)c1` [Example III-91, 2,5-Dimethoxy-N-(5-(pyrimidin-2-yl)pyridin-3-yl)benzenesulfonamide], the IC50 is 100 to 1000 nM. Regarding `COc1ccc(Br)cc1S(=O)(=O)Nc1cncc(-c2ncccn2)c1` [Example III-92, 5-Bromo-2-methoxy-N-(5-(pyrimidin-2-yl)pyridin-3-yl)benzenesulfonamide], the IC50 was below 100 nM. The compound `COc1ccc(Cl)cc1S(=O)(=O)Nc1cncc(-c2ncccn2)c1` [Example III-93, 5-Chloro-2-methoxy-N-(5-(pyrimidin-2-yl)pyridin-3-yl)benzenesulfonamide] displayed an IC50 below 100 nM. `COc1ccc(OC)c(S(=O)(=O)Nc2cncc(-c3cnccn3)c2)c1` [Example III-94, 2,5-Dimethoxy-N-(5-(pyrazin-2-yl)pyridin-3-yl)benzenesulfonamide] came in with an IC50 below 100 nM. Take `COc1ccc(Br)cc1S(=O)(=O)Nc1cncc(-c2cnccn2)c1` [Example III-95, 5-Bromo-2-methoxy-N-(5-(pyrazin-2-yl)pyridin-3-yl)benzenesulfonamide]: the IC50 was below 100 nM. With `COc1ccc(Cl)cc1S(=O)(=O)Nc1cncc(-c2cnccn2)c1` [Example III-96, 5-Chloro-2-methoxy-N-(5-(pyrazin-2-yl)pyridin-3-yl)benzenesulfonamide], the IC50 is below 100 nM. For `COC(=O)c1cncc(NS(=O)(=O)c2cc(Br)ccc2OC)c1` [Example IV-1, Methyl 5-(5-bromo-2-methoxyphenylsulfonamido)nicotinate], the half-maximal inhibitory concentration (IC50) was below 100 nM. For the compound `CCOC(=O)c1cncc(NS(=O)(=O)c2cc(Br)ccc2OC)c1` [Example IV-2, Ethyl 5-(5-bromo-2-methoxyphenylsulfonamido)nicotinate], the IC50 is below 100 nM. Compound `CCCOC(=O)c1cncc(NS(=O)(=O)c2cc(Br)ccc2OC)c1` [Example IV-3, Propyl 5-(5-bromo-2-methoxyphenylsulfonamido)nicotinate] registered an IC50 below 100 nM. In turn, `COc1ccc(Br)cc1S(=O)(=O)Nc1cncc(C(=O)OC2CCCCC2)c1` [Example IV-4, Cyclohexyl 5-(5-bromo-2-methoxyphenylsulfonamido)nicotinate] displayed an IC50 below 100 nM. In turn, `COc1ccc(Br)cc1S(=O)(=O)Nc1cncc(C(=O)Oc2ccccc2)c1` [Example IV-5, Phenyl 5-(5-bromo-2-methoxyphenylsulfonamido)nicotinate] yielded an IC50 below 100 nM. With `CCOC(=O)c1cncc(NS(=O)(=O)c2cc(Cl)ccc2OC)c1` [Example IV-7, Ethyl 5-(5-chloro-2-methoxyphenylsulfonamido)nicotinate], the half-maximal inhibitory concentration (IC50) was below 100 nM.

Compound `CCCOC(=O)c1cncc(NS(=O)(=O)c2cc(Cl)ccc2OC)c1` [Example IV-8, Propyl 5-(5-chloro-2-methoxyphenylsulfonamido)nicotinate] returned an IC50 below 100 nM. Under `COc1ccc(Cl)cc1S(=O)(=O)Nc1cncc(C(=O)OC2CCCCC2)c1` [Example IV-9, Cyclohexyl 5-(5-chloro-2-methoxyphenylsulfonamido)nicotinate] stands below 100 nM; under `COc1ccc(Cl)cc1S(=O)(=O)Nc1cncc(C(=O)Oc2ccccc2)c1` [Example IV-10, Phenyl 5-(5-chloro-2-methoxyphenylsulfonamido)nicotinate], below 100 nM; under `COC(=O)c1cncc(NS(=O)(=O)c2cc(OC)ccc2OC)c1` [Example IV-11, Methyl 5-(2,5-dimethoxyphenylsulfonamido)nicotinate], below 100 nM.
